The values below come from the Deep4Chem optical property database.

Each structure is given as a SMILES string.

The data set is described as follows: solvent given as SMILES.

With `COC(=O)c1cc(=O)n(C)c2cc(-c3ccc(OC)cc3)sc12`, the absorption maximum reads like this: (in C1CCOC1) 402 nm; (in CC#N) 396 nm; (in CN(C)C=O) 402 nm; (in CO) 396 nm; (in CS(C)=O) 404 nm; (in Cc1ccccc1) 402 nm.
On to `CN(C)c1cccc2c1C(=O)c1ccccc1-2`, for which the absorption maximum (in C1CCCCC1) is 433 nm, the absorption maximum (in CC#N) was 444 nm, the absorption maximum (in CCO) is listed as 449 nm and the absorption maximum (in c1ccccc1) is reported as 445 nm.
For the compound `CC(C)(C)NC(=O)c1cccc2ccc3c4ccccc4c4ccccc4c3c12`, the absorption maximum (in ClCCl) is recorded as 332 nm.
Compound `CCOC(=O)c1c(-c2cc3ccccc3oc2=O)nn(-c2cccc(Cl)c2)c1C(=O)OCC` returned an absorption maximum (in ClCCl) of 325 nm.
The compound `CC(C)(C)c1ccc(Oc2cc3c4c(cc(Oc5ccc(C(C)(C)C)cc5)c5c6c(Oc7ccc(C(C)(C)C)cc7)cc7c8c(cc(Oc9ccc(C(C)(C)C)cc9)c(c2c45)c86)C(=O)N(c2ccccc2)C7=O)C(=O)N(c2ccccc2)C3=O)cc1` had an absorption maximum (in ClC(Cl)Cl) of 586 nm.
For the setting “in ClC(Cl)Cl”, `Cc1ccc(/C2=c3\cc/c(o3)=C(\c3ccc(C)cc3)c3ccc([nH]3)-c3ccc4n3[P-](=O)(=O)[N+]3=C(C=CC3=C4c3ccco3)c3ccc2[nH]3)cc1` registered an absorption maximum of 744 nm.
For the compound `CCCCCCOc1cc(C=C2c3ccccc3-c3ccccc32)c(OCCCCCC)cc1C=C1c2ccccc2C=Cc2ccccc21`, the absorption maximum (in C1CCOC1) is listed as 397 nm.
For `N#Cc1cc(-c2ccc(N3c4ccccc4Oc4ccccc43)cc2)c(-c2ccc(N3c4ccccc4Oc4ccccc43)cc2)cc1C#N`, for the setting “in Cc1ccccc1”, the absorption maximum was 406 nm.
On to `C#CCN1C(=O)/C(=C/c2cc(OC(C)C)ccc2OC(C)C)N=C1C`, for which the absorption maximum worked out at 396 nm (in C1COCCO1); 395 nm (in CC#N); 394 nm (in CC(C)=O); 392 nm (in CCCCCC); 400 nm (in CCCCO); 400 nm (in CCCO). Moreover, the absorption maximum (in CCO) is given as 399 nm; the absorption maximum (in CCOC(C)=O) stood at 393 nm; the absorption maximum (in CN(C)C=O) amounted to 399 nm; the absorption maximum (in CO) is listed as 398 nm; the absorption maximum (in CS(C)=O) was 401 nm.
`COC(=O)c1ccc(/C=C2\C=C(c3ccccc3)OC2=O)cc1` yielded an absorption maximum (in C1COCCO1) of 401 nm.
Turning to `CC(C)C[Si](C#Cc1c2c(=O)c3ccccc3c2c(C#C[Si](CC(C)C)(CC(C)C)CC(C)C)c2c(=O)c3ccccc3c12)(CC(C)C)CC(C)C`, the absorption maximum (in ClC(Cl)Cl) is reported as 524 nm.
With `CCN(CC)c1ccc2c(c1)oc(=O)c1c(-c3ccccc3C(=O)O)c3ccc(=[N+](CC)CC)cc-3oc12`, the absorption maximum reads like this: (in CCO) 591 nm; (in ClC(Cl)Cl) 602 nm; (in O) 594 nm.
For the compound `CC[n+]1c(-c2ccccc2)c2cc(NC(N)=[NH2+])ccc2c2ccc(N)cc21`, the absorption maximum (in O) came out at 454 nm.
`Clc1nc(Nc2ccccc2)nc(Nc2ccc3c4cccc5cccc(c6cccc2c63)c54)n1`: the absorption maximum is, setting by setting: (in C1COCCO1) 444 nm; (in CC#N) 442 nm; (in CCCCOCCCC) 443 nm; (in CCOC(C)=O) 442 nm.
On to `Cc1ccc(-n2c(-c3cccc4cc[nH]c34)nc3c4ccccc4c4ccccc4c32)cc1`, for which, for the setting “in Cc1ccccc1”, the absorption maximum came out at 354 nm.
For `CC1=N/C(=C\c2ccncc2)C(=O)N1C`, the absorption maximum is, setting by setting: (in C1COCCO1) 357 nm; (in CC#N) 356 nm; (in CCO) 351 nm; (in CCOC(C)=O) 353 nm; (in O) 347 nm.
`CC1=CC(C)=[N+]2C1=Cc1c(C)cc(C)n1[B-]2(F)F` had an absorption maximum (in CCCCCC) of 508 nm, an absorption maximum (in CO) of 503 nm and an absorption maximum (in ClCCl) of 506 nm.
Take `COc1ccc(C#Cc2c(C#Cc3ccc(OC)cc3)c(C#Cc3ccc(OC)cc3)c(C#Cc3ccc(OC)cc3)c(C#Cc3ccc(OC)cc3)c2C#Cc2ccc(OC)cc2)cc1`: for the setting “in ClCCl”, the absorption maximum came out at 386 nm.
